Each structure is given as a SMILES string.

For three compounds, Growth inhibition and Ki results are on record in ChEMBL document CHEMBL1124150, “cis-4-Carboxy-6-(mercaptomethyl)-3,4,5,6-tetrahydropyrimidin-2(1 H)-one , a potent inhibitor of mammalian dihydroorotase” (J Med Chem, 1988).

For data set [1], the system named is B16. The data set is described as follows: In vitro antiproliferative activity against Murine B16 Melanoma cells in presence of 1 mM uridine at a dose of 1 mM. Format: functional, Mus musculus.
The test system of data set [2] is B16. The data set is described as follows: In vitro antiproliferative activity against Murine B16 Melanoma cells in presence of 1 mM uridine at a dose of 2 mM. The format is functional, Mus musculus.
Data set [3] has as its system B16. In words: In vitro antiproliferative activity against Murine B16 Melanoma cells in presence of 1 mM uridine at a dose of 0.12 mM. Format: functional, Mus musculus.
Data set [4] relates to B16. The data set is described as follows: In vitro antiproliferative activity against Murine B16 Melanoma cells in presence of 1 mM uridine at a dose of 0.25 mM. Format: functional, Mus musculus.
The test system of data set [5] is B16. The data set is described as follows: In vitro antiproliferative activity against Murine B16 Melanoma cells in presence of 1 mM uridine at a dose of 0.5 mM. The format is functional, Mus musculus.
The test system of data set [6] is B16. The data set is described as follows: In vitro antiproliferative activity against Murine B16 Melanoma cells without uridine at a dose of 0.12 mM. The format is functional, Mus musculus.
The test system of data set [7] is B16. In words: In vitro antiproliferative activity against Murine B16 Melanoma cells without uridine at a dose of 0.25 mM. Format: functional, Mus musculus.
The subject of data set [8] is B16. In words: In vitro antiproliferative activity against Murine B16 Melanoma cells without uridine at a dose of 0.5 mM. Format: functional, Mus musculus.
Data set [9] deals with B16. The data set is described as follows: In vitro antiproliferative activity against Murine B16 Melanoma cells without uridine at a dose of 1 mM. Format: functional, Mus musculus.
Data set [10] has as its system B16. The data set is described as follows: In vitro antiproliferative activity against Murine B16 Melanoma cells without uridine at a dose of 2 mM. The format is functional, Mus musculus.
Data set [11] in a line: Dissociation constant was determined. Format: physicochemical.
In data set [12] the test system is B16. The data set is described as follows: In vitro antiproliferative activity against Murine B16 Melanoma cells in presence of 1 mM uridine at a dose of 10 mM. Format: functional, Mus musculus.
For data set [13], the system named is B16. In words: In vitro antiproliferative activity against Murine B16 Melanoma cells without uridine at a dose of 0.01 mM. Format: functional, Mus musculus.
Data set [14] relates to B16. In words: In vitro antiproliferative activity against Murine B16 Melanoma cells in presence of 1 mM uridine at a dose of 0.01 mM. The format is functional, Mus musculus.
Data set [15] relates to B16. In words: In vitro antiproliferative activity against Murine B16 Melanoma cells in presence of 1 mM uridine at a dose of 0.1 mM. The format is functional, Mus musculus.
In data set [16] the test system is B16. In words: In vitro antiproliferative activity against Murine B16 Melanoma cells without uridine at a dose of 0.1 mM. The format is functional, Mus musculus.
Data set [17] deals with B16. In words: In vitro antiproliferative activity against Murine B16 Melanoma cells without uridine at a dose of 10 mM. Format: functional, Mus musculus.

For the compound `COC(=O)[C@@H]1C[C@H](CSC(C)=O)NC(=O)N1` (relative stereo), the Growth inhibition with B16 [1] came out at 83%; in the data set on B16 [2] it was 98%; with B16 [3], 0%; in the data set on B16 [4], 2%; with B16 [5], 9%; in the data set with B16 [6], 0%. The Growth inhibition was 2% in the data set with B16 [7], 28% in the data set on B16 [8], 94% with B16 [9] and 96% in the data set on B16 [10].

One may read the Ki as a measure of affinity in units of concentration, obtained from inhibition or displacement. Lower therefore signals a stronger hold on the target. The compound `O=C1N[C@@H](CS)C[C@@H](C(=O)O)N1` (relative stereo) gave an inhibition constant (Ki) in data set [11] of 200 nM. The Growth inhibition in the data set on B16 [1] amounted to 12%; in the data set with B16 [2] it was 18%; with B16 [3], 0%; with B16 [4] it was 3%; in the data set with B16 [5], 4%; in the data set on B16 [6], 4%. In addition, the Growth inhibition in the data set with B16 [7] stood at 9%; in the data set on B16 [8], 14%; with B16 [9] it was 17%; in the data set with B16 [10] it was 22%.

Take `O=C(O)C[C@H](NC(=O)CP(=O)(O)O)C(=O)O` [PALA]: the Growth inhibition was found to be 9% in the data set with B16 [1]; 10% in the data set with B16 [12]; 16% in the data set with B16 [13]; 6% in the data set on B16 [14]; 6% in the data set on B16 [15]; 79% in the data set on B16 [16]. Further, the values for the Growth inhibition in the data set on B16 [9] and in the data set on B16 [17] were 86% and 84%, respectively.
